Values quoted from earlier work as cited in patent publication US7041851B2, “Fluorinated phenyl thiophenyl derivatives and their use for imaging serotonin transporters” (The Trustees of the University of Pennsylvania, priority 2002, dated 2006).

Molecular target: T1, SERT (Rattus norvegicus, UniProt P31652)
T1 construct: from tissue; host or cells: rat brain in vivo (hypothalamus, striatum, hippocampus, cerebellum)
Conditions: cited from earlier work

T1 sequence (P31652 whole entry): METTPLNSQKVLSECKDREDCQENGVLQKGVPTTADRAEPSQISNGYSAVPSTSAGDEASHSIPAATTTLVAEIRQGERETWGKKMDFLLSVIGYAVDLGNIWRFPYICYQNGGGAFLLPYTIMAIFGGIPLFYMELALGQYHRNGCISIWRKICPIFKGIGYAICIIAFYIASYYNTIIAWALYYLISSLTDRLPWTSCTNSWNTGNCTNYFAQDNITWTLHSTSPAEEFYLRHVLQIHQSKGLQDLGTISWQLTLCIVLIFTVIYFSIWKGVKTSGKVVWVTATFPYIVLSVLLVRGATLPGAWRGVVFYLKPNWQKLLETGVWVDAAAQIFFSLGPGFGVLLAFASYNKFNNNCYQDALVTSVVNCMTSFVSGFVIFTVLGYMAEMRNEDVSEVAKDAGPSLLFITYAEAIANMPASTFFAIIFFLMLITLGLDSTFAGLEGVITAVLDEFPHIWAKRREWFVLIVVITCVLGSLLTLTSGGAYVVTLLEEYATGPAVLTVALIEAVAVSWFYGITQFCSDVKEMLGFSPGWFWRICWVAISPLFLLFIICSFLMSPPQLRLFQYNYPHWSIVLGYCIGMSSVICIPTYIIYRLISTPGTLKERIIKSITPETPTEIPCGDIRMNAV

| Compound | Time of peak uptake (comparison with [18F]ACF, hypothalamus region) | Brain uptake and specific binding (rats, 11C-labelled, Huang et al., 2001b) |
| --- | --- | --- |
| CN(C)Cc1ccccc1Sc1ccc([125I])cc1N [[^125I]ADAM] | 4 h |  |
| CN([11CH3])Cc1ccccc1Sc1ccc(CF)cc1N [AFM] |  | excellent brain uptake and a high degree of specific binding |
